Laboratory results from publication PMC11339918, “Extracellular Domain of IL-10 Receptor Chain-2 (IL-10R2) and Its Arginine-Containing Peptides Are Susceptible Substrates for Human Prostate Kallikrein-2 (KLK2)” (Biochemistry, 2024).
Non-standard residues stand in square brackets, D forms with d. No end group written: not given here. *: point of attachment. EDDnp = O=[N+]([O-])c1ccc(NCCN*)c([N+](=O)[O-])c1; 2Abz = Nc1ccccc1C(=O)O

Key:
KLK2 = experiment: Effects of salts and glycosaminoglycans on KLK2 hydrolysis of Abz-KLRSSKQ-EDDnp; assay type: biochemical, human; settings: 20 mM Tris–HCl, 1 mM EDTA, 5.0 μM Abz-KLRSSKQ-EDDnp, [E] = 1.58 nM, 37 °C, pH 8.0
Description: Bovine lung heparin was prepared as previously reported;[16] dermatan sulfate (12 000 Da) and chondroitin sulfate (25 000 Da) were purchased from Seikagaku Kogyo Co. (Tokyo, Japan), and heparan sulfate (16 000 Da) from the bovine lung was a generous gift from Dr. P. Bianchini (Opocrin Research Laboratories, Modena, Italy).
Figure 1 KLK2 hydrolysis of Abz-KLRSSKQ-EDDnp. (A) Effects of sodium citrate, sodium sulfate, and sodium chloride on the FRET-peptide hydrolysis by KLK2. (B) pH profile for the KLK2 activity. (C) Effects of glycosaminoglycans on KLK2 activity. Assays were carried out in 20 mM Tris–HCl, 1 mM EDTA, and 5.0 μM substrate; [E] = 1.58 nM at 37 °C and pH 8.0 for experiments in (A and C).

KLK3 = experiment: Hydrolysis by KLK3 of IL-10R2-derived FRET peptides containing F or Y; assay type: biochemical, human; settings: 2 nM KLK3, 20 mM Tris-HCl, 1 mM EDTA, 1.5 M sodium citrate, pH 7.8, 37 °C
Text: Obtained from a baculovirus-insect cell line system, purified, and activated as previously reported,[14] MUGB (4-methylumbelliferyl p-guanidino benzoate hydrochloride) was used for the spectrofluorimetric determination of molar concentrations of active KLK2.[15] KLK3 was obtained and assayed as previously reported.[3] […]
FRET Peptides with F FRET Peptides with Y
Abz-MNSVNFKNIL-Q-E DD np Abz-FTAQYLSYR-Q-EDD np
Abz-WESPAFAKGN-Q-EDD np Abz – AQYL SYRIF-Q-EDDnp
Abz-KGNLTFT AQY-Q-EDDnp Abz-SSLSKYGDHT-Q-EDD np
Abz-LSYRIFQDKA-Q-EDD np Abz-KIENEYET WT-Q-EDDnp
Abz-LTEADFSSLS-Q-EDD np Abz-TMKNVYNSWT-Q-ED Dnp
Abz-RVRAEFADEH-Q-EDDnp Abz-NSWTYNVQ-Q-EDDnp
Abz-HSDWVNITFAPVD-Q-EDDnp Abz-NVQYWKNG-Q-EDDnp
Abz-SLHMRFL AP K-Q-EDD np Abz-QITPQYDFEV-Q-EDD np
Abz-GTDEKFQ IT P-Q-EDD np Abz – EPWTTYAVQR-Q-EDD np
Conditions of reactions: 2 nM KLK3, 20 mM Tris -HCl, 1 mM EDTA, 1.5 M sodium citrate, pH 7.8, at 37 °C.
The sequence o f FRET peptide with F or Y in the middle of the sequence can be identiﬁed in the IL-
10R2 ectodomain sequence around F or Y, as shown b e l o w. Cysteines were substituted by Alanine (A)
1 MAWSLGSWLGGCLLVSALGMVPPPENVRMNSVNFKNILQWESPAFAKGNLTFTAQYLSYR.
61 IFQDKCMNTTLTECDFSSLSKYGDHTLRVRAEFADEHSDWVNITFCPVDDTIIGPPGMQV.
121 EVL ADSLHMR FL APKIENEY ET W TMKNVYN SWTYNVQYWK NGTDEKFQIT PQYDFEVLRN.
181 LEPW TTYCVQ VRGF LPDRNK AGEWSEPVCE QTTHDETVPS.

Recombinant KLK2 = molecular target: T1, Recombinant KLK2 (Homo sapiens, UniProt P20151); experiment: Hydrolysis of FRET peptides by recombinant KLK2 (kinetic parameters); assay type: biochemical; settings: pH 8.0, 20 mM Tris–HCl, 1 M sodium citrate, 37 °C, KLK2 1.6 nM; three enzymatic reactions, standard errors 5% or less
T1 construct: made in house; host or cells: baculovirus-insect cell line system
T1 sequence (P20151 25-261): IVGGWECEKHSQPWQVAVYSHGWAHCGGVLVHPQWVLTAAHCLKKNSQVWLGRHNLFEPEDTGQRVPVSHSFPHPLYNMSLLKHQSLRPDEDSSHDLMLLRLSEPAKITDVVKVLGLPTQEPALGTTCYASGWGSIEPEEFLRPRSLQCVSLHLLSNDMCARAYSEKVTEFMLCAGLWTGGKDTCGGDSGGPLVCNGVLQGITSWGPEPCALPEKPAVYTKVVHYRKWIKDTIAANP
Text: Obtained from a baculovirus-insect cell line system, purified, and activated as previously reported,[14] MUGB (4-methylumbelliferyl p-guanidino benzoate hydrochloride) was used for the spectrofluorimetric determination of molar concentrations of active KLK2.[15] KLK3 was obtained and assayed as previously reported.[3]
All of the FRET peptides were obtained by solid-phase peptide synthesis. The purity of FRET peptides to 95% or higher was obtained by semipreparative HPLC on a C18 reversed-phase column and used as protease substrates, as previously reported.[5] Details about the purification and quality of the FRET peptides are provided in the Supporting Information. The enzymatic kinetic measurements were all performed with FRET peptides as previously described.[5]
Five series of FRET peptides derived from Abz-KLRSSK-Q-EDDnp were assayed with KLK2 in 20 mM Tris–HCl, pH 8.0, and 1 M sodium citrate. […] The specificity of subsites S3, S2, S1’, and S2’ was explored by the FRET peptide series Abz-XLRSSKQ-EDDnp (for S3), Abz-KXRSSKQ-EDDnp (for S2), Abz-KLRXSKQ-EDDnp (for S1’), and Abz-KLRSXKQ-EDDnp (for S2’). All of them were hydrolyzed only at R–S or R–X peptide bonds, and the kinetic parameters for their hydrolysis by KLK2 are listed in Table 1.

## chondroitin sulfate
KLK2
  effect of glycosaminoglycan on KLK2 activity: inhibitory

## Abz-QITPQYDFEV-Q-EDD np [Abz-QITPQYDFEV-Q-EDDnp, FRET peptide with Y derived from IL-10R2 ectodomain]
KLK3
  hydrolysis by KLK3 (in words): resistant to hydrolysis by KLK3

## Abz – EPWTTYAVQR-Q-EDD np [Abz-EPWTTYAVQR-Q-EDDnp, FRET peptide with Y derived from IL-10R2 ectodomain]
KLK3
  hydrolysis by KLK3 (in words): resistant to hydrolysis by KLK3

## Abz-HSDWVNITFAPVD-Q-EDDnp [FRET peptide with F derived from IL-10R2 ectodomain]
KLK3
  hydrolysis by KLK3 (in words): resistant to hydrolysis by KLK3

## Abz-SLHMRFL AP K-Q-EDD np [Abz-SLHMRFLAPK-Q-EDDnp, FRET peptide with F derived from IL-10R2 ectodomain]
KLK3
  hydrolysis by KLK3 (in words): resistant to hydrolysis by KLK3

## Abz-FTAQYLSYR-Q-EDD np [Abz-FTAQYLSYR-Q-EDDnp, FRET peptide with Y derived from IL-10R2 ectodomain]
KLK3
  hydrolysis by KLK3 (in words): resistant to hydrolysis by KLK3

## Abz-SSLSKYGDHT-Q-EDD np [Abz-SSLSKYGDHT-Q-EDDnp, FRET peptide with Y derived from IL-10R2 ectodomain]
KLK3
  hydrolysis by KLK3 (in words): resistant to hydrolysis by KLK3

## Abz-KIENEYET WT-Q-EDDnp [Abz-KIENEYETWT-Q-EDDnp, FRET peptide with Y derived from IL-10R2 ectodomain]
KLK3
  hydrolysis by KLK3 (in words): resistant to hydrolysis by KLK3

## Abz-NVQYWKNG-Q-EDDnp [FRET peptide with Y derived from IL-10R2 ectodomain]
KLK3
  hydrolysis by KLK3 (in words): resistant to hydrolysis by KLK3

## Abz-LSYRIFQDKA-Q-EDD np [Abz-LSYRIFQDKA-Q-EDDnp, FRET peptide with F derived from IL-10R2 ectodomain]
KLK3
  hydrolysis by KLK3 (in words): resistant to hydrolysis by KLK3

## Abz-LTEADFSSLS-Q-EDD np [Abz-LTEADFSSLS-Q-EDDnp, FRET peptide with F derived from IL-10R2 ectodomain]
KLK3
  hydrolysis by KLK3 (in words): resistant to hydrolysis by KLK3

## Abz-VQVRGFLPDR-Q-EDD np [Abz-VQVRGFLPDR-Q-EDDnp, FRET peptide with F derived from IL-10R2 ectodomain]
KLK3
  hydrolysis by KLK3 (in words): resistant to hydrolysis by KLK3

## Abz-T P QYDFEVLR-Q-EDDnp [Abz-TPQYDFEVLR-Q-EDDnp, FRET peptide with F derived from IL-10R2 ectodomain]
KLK3
  hydrolysis by KLK3 (in words): resistant to hydrolysis by KLK3

## Abz – AQYL SYRIF-Q-EDDnp [Abz-AQYLSYRIF-Q-EDDnp, FRET peptide with Y derived from IL-10R2 ectodomain]
KLK3
  hydrolysis by KLK3 (in words): resistant to hydrolysis by KLK3

## Abz-TMKNVYNSWT-Q-ED Dnp [Abz-TMKNVYNSWT-Q-EDDnp, FRET peptide with Y derived from IL-10R2 ectodomain]
KLK3
  hydrolysis by KLK3 (in words): resistant to hydrolysis by KLK3

## Abz-GTDEKFQ IT P-Q-EDD np [Abz-GTDEKFQITP-Q-EDDnp, FRET peptide with F derived from IL-10R2 ectodomain]
KLK3
  hydrolysis by KLK3 (in words): resistant to hydrolysis by KLK3

## heparin
KLK2
  effect of glycosaminoglycan on KLK2 activity: almost no effect

## Abz-MNSVNFKNIL-Q-E DD np [Abz-MNSVNFKNIL-Q-EDDnp, FRET peptide with F derived from IL-10R2 ectodomain]
KLK3
  hydrolysis by KLK3 (in words): resistant to hydrolysis by KLK3

## O=C([O-])CC(O)(CC(=O)[O-])C(=O)[O-].[Na+].[Na+].[Na+] [sodium citrate]
KLK2
  effect of salt on KLK2 activity: ten times more efficient activator of KLK2 than sodium sulfate

## Abz-KGNLTFT AQY-Q-EDDnp [Abz-KGNLTFTAQY-Q-EDDnp, FRET peptide with F derived from IL-10R2 ectodomain]
KLK3
  hydrolysis by KLK3 (in words): resistant to hydrolysis by KLK3

## Abz-KLRXSKQ-EDDnp, X = I: FRET peptide, S1’ series, X = I ([2Abz]KLRISKQ-EDDnp)
Recombinant KLK2
  Km: 1.8 µM
  kcat: 7.2 s^–1
  kcat/Km: 4000 s^–1 mM^–1

## Abz-KXRSSKQ-EDDnp, X = I: FRET peptide, S2 series, X = I [Abz-KXRSSKQ-EDDnp, X = I] (Abz-KIRSSKQ-EDDnp)
Recombinant KLK2
  Km: 4.5 µM
  kcat: 4.7 s^–1
  kcat/Km: 1044 s^–1 mM^–1

## heparan sulfate
KLK2
  effect of glycosaminoglycan on KLK2 activity: activate KLK2 in sub- and micromolar concentrations, respectively

## Abz-KXRSSKQ-EDDnp, X = R: FRET peptide, S2 series, X = R (Abz-KRRSSKQ-EDDnp)
Recombinant KLK2
  Km: 5.2 µM
  kcat: 8.7 s^–1
  kcat/Km: 1673 s^–1 mM^–1

## dermatan sulfate
KLK2
  effect of glycosaminoglycan on KLK2 activity: activate KLK2 in sub- and micromolar concentrations, respectively

## Abz-NSWTYNVQ-Q-EDDnp [FRET peptide with Y derived from IL-10R2 ectodomain]
KLK3
  hydrolysis by KLK3 (in words): resistant to hydrolysis by KLK3

## Abz-WESPAFAKGN-Q-EDD np (Abz-WESPAFAKGNQ-EDDnp) [Abz-WESPAFAKGN-Q-EDDnp, FRET peptide with F derived from IL-10R2 ectodomain]
KLK3
  hydrolysis by KLK3 (in words): resistant to hydrolysis by KLK3

## Abz-RVRAEFADEH-Q-EDDnp [FRET peptide with F derived from IL-10R2 ectodomain]
KLK3
  hydrolysis by KLK3 (in words): resistant to hydrolysis by KLK3

## Abz-KLRXSKQ-EDDnp, X = H: FRET peptide, S1’ series, X = H (N-terminal Abz, C-terminal EDDnp; X = H)
Recombinant KLK2
  Km: 4.3 µM
  kcat: 8.0 s^–1
  kcat/Km: 1860 s^–1 mM^–1

## Abz-KLRSXKQ-EDDnp, X = A: FRET peptide, S2’ series, X = A ([2Abz]KLRSAKQ-EDDnp)
Recombinant KLK2
  Km: 3.8 µM
  kcat: 12.2 s^–1
  kcat/Km: 3211 s^–1 mM^–1

## Abz-KLRXSKQ-EDDnp, X = V: FRET peptide, S1’ series, X = V ([2Abz]KLRVSKQ-EDDnp)
Recombinant KLK2
  Km: 2.2 µM
  kcat: 8.1 s^–1
  kcat/Km: 3682 s^–1 mM^–1
